Experimental data taken from patent publication US20100189695A1, “IRAK-1 AS REGULATOR OF DISEASES AND DISORDERS” (priority 2008, published 2010).
No end group written: not given here.

What was measured:
RARα = RARα levels in BMDMs after LPS, Western blot and real time RT-PCR; format: cell-based, mouse; conditions: for nuclear RARα protein level: 100 ng/ml LPS
Experimental: To determine if IRAK-1 is involved in the nuclear translocation of RARα, the levels of RARα were determined in wild type and IRAK-1 deficient macrophages in the presence and absence of LPS (FIG. 9). […] When experiments are performed in a IRAK-1 deficient background, RARα is not suppressed (lanes 5-8). As expected, when a wild type background is used, IRAK-1 suppression can be seen (lanes 1 and 2).
WT and IRAK-1^−/−. BMDMs were treated with 100 ng/ml LPS for 2 h followed by nuclear protein extraction. The samples were analyzed by immunoblotting using the indicated antibodies. LaminB was used as the loading control. Panel B: the BMDMs derived from WT and IRAK-1^−/− mice were treated with LPS for 2 h followed by RNA extraction. The resulting cDNAs were used to detect RARα transcript levels by real time RT-PCR and standardized against GAPDH levels. Panel C: WT BMDMs were treated with 100 ng/ml LPS for 2 h followed by whole cell protein extraction. The samples were resolved by SDS-PAGE followed by immunoblotting with anti-RARα antibodies. Panel D: BMDM cells derived from WT mice were either untreated or treated with Leptomycin B (LepB) alone or in the presence of LPS. After 2 h incubation, nuclear lysates were prepared and subjected to SDS-PAGE followed by Western blot analysis with RARα specific antibodies. The blots were also probed with LaminB-specific antibodies as a loading control. ns=non-specific.

Tau = Tau phosphorylation (PHF-Tau) after BLP (Pam3CSK4) in bone marrow derived macrophages, Western blot; format: cell-based, mouse
Experimental: Because Tau phosphorylation is increased in aged human brains and contributes to the pathogenesis of various neurological diseases, such as Alzheimer's and Parkinson's diseases, studies were performed to ask whether the increased levels of full-length IRAK-1 can contribute to Tau phosphorylation. In order to answer this question, a transgenic mouse model known in the art was used. According to this study, either wild type or IRAK-1 deficient bone marrow derived macrophages were treated with BLP (Pam3CSK4) for various times, as indicated in FIGS. 4 and 5. The levels of phosphorylated Tau (PHF-Tau) were detected through Western Blot using anti-phosphorylated Tau antibody.

NOX-1 = NOX-1 expression after LPS in BMDM cells; format: cell-based, mouse
Experimental: To determine if IRAK-1 was involved in the regulation of inflammatory mediator NOX-1, the levels of NOX-1 were determined in wild type and IRAK-1 deficient macrophages in the presence and absence of LPS (FIG. 16).
Panel A: Effect of LPS on NOX-1 expression in WT and IRAK1^−/− BMDM cells. The cells were stimulated with LPS (100 ng/ml) for 2 h. After stimulation, total RNA was prepared using Trizol reagent followed by reverse transcription and the mRNA levels of NOX-1 were analyzed using real-time RT-PCR. Each data point represents the mean+/−standard deviation of at least three independent experiments. *P<0.05, compared with control. Panel B: The protein levels of NOX-1 were analyzed after LPS stimulation in WT and IRAK1^−/− BMDM cells by Western blot using an anti-NOX-1 antibody. The same blots were probed with β-actin as the loading control. Panel C: Chromatin immunoprecipitation analyses were performed to determine LPS-inducible recruitment of C/EBPδ to the promoter region of NOX-1. In contrast, LPS cannot induce C/EBPδ binding to the promoter region of NOX-1 in IRAK-1 deficient macrophages.

LXRα = LXRα protein after LPS, Western blot; format: cell-based
Description: The transcriptional factor LXRα was also thought to be a potential target of IRAK-1 suppression. FIG. 14 illustrates Western blot analysis of the LXRα protein in the presence and absence of IRAK-1. Suppression of LXRα can be seen in the wild type cells (lanes 1 and 2).

PGC1α = PGC1α protein after LPS, Western blot; format: cell-based; conditions: LPS vs Control
Experimental: The ability of IRAK-1 to regulate the transcription factor PGC1α was determined in this set of experiments. PGC1α was detected by Western blot analysis in either wild type or IRAK-1 deficient cells in the presence or absence of LPS (FIG. 15).

PPARα = PPARα protein after LPS, Western blot; format: cell-based; conditions: IRAK-1 deficient cells, LPS vs Control
Description: It was of interest to determine if the transcription factor PPARα is also regulated by IRAK-1.

BMDM cells = test: Intracellular ROS by DCFDA staining after LPS stimulation; format: cell-based, mouse; conditions: wild type macrophages, LPS 100 ng/ml, 15 minutes or 16 hours
Experimental: (§1) To determine if IRAK-1 is required for LPS-induced activation of Rac1, either wild type or IRAK-1 deficient macrophages were treated with LPS (100 ng/ml).
Intracellular ROS levels were measured by DCFDA staining using fluorescence microscope after LPS (100 ng/ml) stimulation in WT and IRAK1^−/− BMDM cells for 15 min.

C/EBPδ = test: LPS-induced C/EBPδ expression, Western blot in macrophages; format: cell-based; conditions: LPS two hours
Experimental: To determine if IRAK-1 is involved in LPS-induced C/EBPδ expression, either wild type or IRAK-1 deficient macrophages were treated with LPS for two hours. […] Either β-actin or lamin-B proteins were used as controls.

MCP-1 = MCP-1 message and protein after LPS in macrophages, real-time PCR and ELISA; format: cell-based; conditions: wild-type cells, LPS stimulation
Experimental: To investigate the possible role of IRAK-1 in control of MCP-1 expression, experiments were performed to assess the level of MCP-1 produced via LPS stimulation. It was postulated that IRAK-1 regulates the expression of MCP-1 through interaction of IRAK-1 with C/EBPδ. To assess this possible interaction, MCP-1 mRNA levels were determined in both wild-type cells and IRAK^−/− cells in the presence and absence of LPS. The results are depicted graphically in FIG. 17.
As shown in the figure, the levels of MCP-1 message (left panel) and protein (right panel) in wild type and IRAK-1 deficient macrophages following LPS stimulation was measured by real-time PCR analyses (left panel) and ELISA (right panel). […] The data fully support a role for IRAK-1 in control of expression of MCP-1 transcription through control of C/EBPδ.

Rac1 = Rac1 activity by PBD pull down assay after LPS stimulation; format: cell-based, mouse; conditions: LPS 100 ng/ml, 5 min
Experimental: as §1
Rac1 activity was determined using the PBD pull down assay following LPS stimulation (100 ng/ml) for 5 min in WT and IRAK1^−/− BMDM cells followed by immunoblotting with an anti-Rac1 antibody. […] The bar graphs are densitometric analyses of the active Rac1 specific bands from three independent experiments.

ABCA1 = ABCA1 induction by ATRA in BMDMs, real time RT-PCR; format: cell-based, mouse; conditions: IRAK1−/− vs WT BMDMs, 50 nM ATRA, 6 h
Experimental: WT and IRAK1^−/− BMDM cells were either untreated or treated with ATRA (50 nM) followed by Western blot analysis of cell extracts using ABCA1 specific antibodies. Antibodies against β-actin were used as the internal loading control. Panel B: the band intensities were quantitated using the Fujifilm Multi Gauge software and the fold induction is depicted after normalization against β-actin levels. Panel C: IRAK-1 expression was knocked-down using IRAK-1 specific siRNA (IRAK1). Wild type macrophages treated with either control siRNA or IRAK-1 specific siRNA were stimulated with 50 nM ATRA for 6 hrs. The levels of ABCA1 protein were determined by Western blot using anti-ABCA1 antibody. The levels of beta-actin were probed and served as equal loading controls. The levels of IRAK-1 were probed to make efficient knock-down with the IRAK-1 specific siRNA treatment. […] The cells were […] either untreated or treated with 50 nM ATRA for 6 h and the expression of ABCA1 and ABCG1 transcripts were measured by real time RT-PCR assays and standardized against GAPDH levels.

CCC(=C/[C@H](C)C/C=C/C(C)=C/[C@@H](C)C(=O)[C@@H](C)[C@H](O)[C@@H](C)C/C(C)=C/C(=O)O)/C=C/[C@@H]1OC(=O)C=C[C@@H]1C [LepB, Leptomycin B]
LPS-induced suppression of nuclear RARα in the presence of LepB (RARα; wild type BMDM, LepB with LPS, 2 h): RARα suppression by IRAK-1 is not seen

Triacylated Cys-Ser-Lys-Lys-Lys-Lys (CSKKKK; not fully specified (residue 1, N-terminus); printed as Triacylated Cys-Ser-Lys-Lys-Lys-Lys) [Pam3CSK4]
Tau phosphorylation (Tau; IRAK-1 deficient bone marrow derived macrophages): Tau phosphorylation is ablated
Tau phosphorylation (Tau; wild type bone marrow derived macrophages): led to increased Tau phosphorylation

lipopolysaccharide [LPS]
NOX-1 protein (NOX-1; IRAK-1 deficient cells): Induction was seen to a lesser extent
NOX-1 protein (NOX-1; wild type macrophage cells): LPS-induction of NOX-1
amount of LXRα in the presence or absence of LPS (LXRα; IRAK-1 deficient cells): approximately the same
amount of LXRα without LPS induction relative to LPS-induced cells (LXRα; wild type cells): four times
PGC1α protein (PGC1α; IRAK-1 deficient cells): did not show the LPS-induced suppression
PGC1α protein (PGC1α; wild type cells): much less of the PGC1α protein
PPARα protein (PPARα): PPARα was seen in both the Control and LPS samples
nuclear RARα protein level (RARα; IRAK-1 deficient BMDMs, 2 h): no significant suppression
nuclear RARα protein level (RARα; wild type BMDMs, 2 h): suppression of RARα protein
RARα relative transcript levels (RARα; wild type and IRAK-1 deficient BMDMs, LPS 2 h, standardized against GAPDH): approximately equal
reactive oxygen species levels (BMDM cells): induced significantly higher levels of reactive oxygen species
C/EBPδ expression (C/EBPδ; IRAK-1 deficient macrophages): no induction
C/EBPδ expression (C/EBPδ; wild type macrophages): induction
MCP-1 transcription and protein expression (MCP-1): significant increase in induction of MCP-1 transcription and protein expression
activation of Rac1 (Rac1; IRAK-1 deficient macrophages): No induction was seen
relative Rac1 activity (Rac1; wild type macrophages): significantly higher

CC1=C(/C=C/C(C)=C/C=C/C(C)=C/C(=O)O)C(C)(C)CCC1 [ATRA, all trans retinoic acid]
ABCA1 mRNA induction (ABCA1): higher induction of ABCA1 mRNA
